Peptide text beside a SMILES is read from it.
Experiments:
in vivo = details: both, C57BL/6, mouse, ip, 1 mg/kg
Description: (§2) Mice (n = 30), C57BL/6 males and females 8–10 weeks old weighing 20–25 g, purchased from Jackson Laboratories (Bar Harbor, ME) were used in this study. Mice were housed in ventilated racks in specific pathogen free conditions and were provided with food and water available ad libitum. M10 peptide was solubilized in water and administered intraperitoneally in a dose of 1 mg/kg. Mice were sacrificed by isoflurane overdose, and blood samples were collected by cardiac puncture in the presence of 0.01% of Na-Citrate at time intervals of 15 min, 30 min, 1, 2, 4, 6, 12, 24, and 48 hours after injection. The blood samples (n = 3/group) were centrifuged at 2500 rpm for 10 min, and plasma samples were stored at -80°C. Plasma samples collected from mice injected with water intraperitoneally (n = 3) were used as a negative control.
(§3) M10 concentration was measured by indirect ELISA developed in our laboratory. Known concentrations of pharmaceutical grade M10 peptide (GenScript, Piscataway, NJ) with purity more than 98% were used to generate the standard curve. Briefly, 100μl of known concentration of M10 (range: 10 ng/ml to 500 ng/ml), blank (PBS without M10), and 100μl of the diluted plasma sample were plated in triplicate in high-affinity polystyrene micro-titer plates. Samples were incubated with gentle rocking overnight at 4°C and blocked with 5% bovine serum albumin in PBS. After washing, samples were incubated for 2 hours at room temperature with anti-cMET rabbit antibody (Santa Cruz Biotechnology, Santa Cruz, CA), followed by 1hour incubation with HRP-conjugated anti-Rabbit IgG (Rockland, Limerick, PA). M10 was detected with ultra-TMB (3, 3’, 5, 5’-tetramethylbenzidine)-substrate, and the reaction was terminated by using 2M sulfuric acid. Absorbance was measured at 450 nm by Spectra Max Plus spectrophotometer. Concentrations of unknown samples were then calculated from their corresponding optical density (OD) values by Softmax Pro 4.8 software (Molecular Devices, Sunnyvale, CA) using the standard curve generated from the known concentrations of M10. Control plasma samples collected from mice with intraperitoneal water injection were run in triplicate with each experiment, mean was calculated, and samples were normalized by subtracting the negative control mean value. Final concentrations were calculated by adjusting the sample dilution factor.
(§4) To obtain the pharmacokinetic profile of M10 in mouse plasma, C57Bl6 mice were injected intraperitoneally with M10 at a dose of 1mg/kg of body weight. Plasma samples were collected by cardiac puncture in the presence of 0.01% of Na-Citrate at time intervals of 15 min, 30 min, 1h, 2h, 4h, 6h, 12 h, 24 h, and 48 h following injection. Samples were diluted in PBS in order to fit within the range of the standard curves and then tested using the M10 ELISA. Concentration of M10 in plasma samples was calculated by Softmax Pro 4.8 software using the standard curve generated from the known concentration of M10. The samples were normalized by subtracting the negative controls represented by plasma samples obtained from mice injected with H2O.

[1] = tested on: caspases, thrombin, factor Xa, trypsin and granzyme B; details: cited from earlier work
[2] = in vivo, ip, 1 mg/kg
Description: as §2, §3, §4

[3] = tested on: bleomycin-induced mouse model of lung fibrosis; details: cited from earlier work
Text: (§1) We recently discovered a 10 amino acid antifibrotic peptide (M10) with antifibrotic properties in vitro and in a murine model of lung fibrosis, which is a natural cleavage product by caspase-3 of the cytoplasmic tail of the c-MET receptor tyrosine kinase. Following binding of hepatocyte growth factor (HGF), c-MET undergoes auto phosphorylation at tyrosine residues in its cytoplasmic domain and initiates a cascade of signal transduction events leading to specific cellular responses implicated in embryonic development and tissue regeneration after injury.

Smad2 = details: cited from earlier work
Text: as §1

[4] = tested on: human lung and skin fibroblasts; details: cited from earlier work
Text: as §1

[5] = Mean M10 concentration in plasma

AUC(0-t) (in vivo): 72500 ± 2390 ng·h/mL | Tmax (in vivo): 6 h | half-life (in vivo): 6.8 ± 0.7 h | level at 4 h (in vivo; [5]): 3590 ng/mL | level at 6 h (in vivo; [5]): 4550 ng/mL | level at 12 h (in vivo; [5]): 3140 ng/mL | level at 24 h (in vivo; [5]): 801 ng/mL | level at 48 h (in vivo; [5]): 366 ng/mL | Mean M10 concentration in plasma ([2]; both, C57BL/6, mouse, 24 h): 1216 ng/mL | Cmax (peak plasma concentration) ([2]; mouse): 4861.5 ± 11.5 ng/mL | Time by which plasma concentration declined to minimal (detectable) levels ([2]; mouse): ≤ 48 h
SMILES: C[C@H](NC(=O)[C@@H]1CCCN1C(=O)[C@H](CCCNC(=N)N)NC(=O)[C@@H](N)[C@@H](C)O)C(=O)N[C@@H](CO)C(=O)N[C@@H](Cc1ccccc1)C(=O)N[C@@H](Cc1c[nH]c2ccccc12)C(=O)N[C@@H](CCC(=O)O)C(=O)N[C@H](C(=O)N[C@@H](CO)C(=O)O)[C@@H](C)O [M10] (H-TRPASFWETS-OH; N-terminus and C-terminus assumed)
Resistance to mammalian proteases [1]: resistance to many mammalian proteases | Effect on collagen [3]: reduces collagen | Interaction with Smad2 (Smad2): interacts with Smad2 | Effect on collagen [4]: reduces collagen
